Values after ≈ are worked out from the molar mass of the structure shown. Residues, ends and D or L forms follow the SMILES beside them.
Tests used:
human erythrocytes = experiment: Hemolysis assay; format: cell-based; conditions: 2% erythrocytes in PBS, 1 h 37 °C, absorbance 550 nm; up to / at 256 µg/mL
Protocol: For the hemolytic assay, mouse and human whole blood was diluted with PBS (pH 7.4) and centrifuged for 10 min at 500× g. After removing the supernatant and rinsing the pellet three times with PBS, we resuspended the erythrocytes in PBS at 2% volume. The blood solution was added to the solution of peptides with two-fold serial dilution on a 96-well plate. After incubation for an hour at 37 °C, the plate was centrifuged at 2500× g for 10 min, and the absorbance of the supernatant was measured at 550 nm. The PBS-treated sample was the negative control, and the 0.1% Triton X-100–treated sample was the positive control. To measure white blood cell toxicity, mouse and human PBMCs were freshly isolated as previously described, and 70% ethanol (positive control) or AMPR-22 was administered using two-fold diluted concentrations (0 to 256 μg/mL) for 30 min. To measure cell death, a LIVE/DEAD® fixable green dead cell stain kit (Thermo Fisher Scientific, Waltham, MS, USA) was used following the manufacturer′s instructions, and flow cytometry was performed using a FACS Canto II (BD Biosciences, CA, USA). The toxicity of AMPR-22 was compared with negative (PBS-treated) and positive controls, and the data were analyzed using FlowJo software (Tree Star, OR, USA).

[1] = tested on: Carbapenem-resistant P. aeruginosa (CRPA), clinical isolate; format: cell-based, Pseudomonas aeruginosa; conditions: 1 h
Description: Acinetobacter baumannii (ATCC 19606), B. subtilis (ATCC 6633), E. aerogenes (ATCC 13048), E. coli (ATCC 25922), E. faecalis (ATCC 19433), E. faecium (ATCC 19434), K. pneumoniae (ATCC 13883), P. aeruginosa (ATCC 27853), S. aureus (ATCC 29213), S. sindenensis (ATCC 23963), and MRSA (ATCC 33591) were purchased from the American Type Culture Collection (ATCC; Gaithersburg, MD, USA). Streptococcus pneumoniae (NCCP 14585), vancomycin-resistant E. faecium (NCCP 11522), and vancomycin-resistant S. aureus (NCCP 15872) were purchased from the National Culture Collection for Pathogens (NCCP; Cheongju, Korea). The isolation and use of carbapenem-resistant bacterial strains from a patient were approved (2015AN0129) by the Institutional Review Board (IRB) of Korea University Hospital. CRPA, CRKP, and CRAB were clinically isolated in Korea University Hospital (Seoul, Korea). CRPA was confirmed to be resistant to piperacillin, piperacillin-tazobactam, ceftazidime, imipenem, meropenem, gentamicin, amikacin, and ciprofloxacin. CRAB was confirmed to be resistant to piperacillin, piperacillin-tazobactam, cefepime, ceftazidime, imipenem, meropenem, gentamicin, amikacin, and ciprofloxacin. CRKP was confirmed to be resistant to piperacillin-tazobactam, cefepime, ceftazidime, imipenem, gentamicin, and ciprofloxacin. All strains were stored at –80 °C in 50% glycerol and 50% Luria-Bertani (LB) or tryptic soy (TS) broth, grown on LB or TS plates, and aerated at 37 °C.
(§1) The minimum bactericidal concentration (MBC) was determined as previously described with minor modifications. Briefly, bacteria were cultured in the mid-log phase and diluted to 5 × 10^5 colony-forming unit (CFU)/mL in 10 mM sodium phosphate buffer (pH 7.4) with a 1% volume of TS broth. They were incubated for 1 h with various peptides which were two-fold diluted serially from 64 μg/mL to 0 μg/mL concentrations in a 96-well plate. The samples were inoculated TS agar plate and incubated overnight at 37 °C. The value of MBC was determined at the lowest concentrations at which no colonies were identified.
(§2) We used the CFU counting method to measure antibacterial activity, with all bacteria cultured to the mid-log phase in an appropriate broth medium. Bacterial CFUs were counted after overnight culture at 37 °C on TS or LB agar plates. The MBC value and antibacterial activity in blood components were determined as previously described. Mouse and human whole blood were collected and diluted with PBS (pH 7.4) to measure the ex vivo antibacterial activity of AMPR-22. For that test, AMPR-22 (10 μg) was added to each whole blood solution and incubated at 37 °C with shaking at 200 rpm. At each time point, it was incubated with bacteria (1 × 10^3 CFU) for 30 min. Each sample was inoculated on an LB agar plate, and CFU counting was performed. To measure the in vivo activity of AMPR-22, 1 × 10^8 CFU of bacteria were injected into BALB/c mice, and an hour later, 10 mg/kg of the test peptides were injected. Blood samples were collected by tail cut, serially diluted with PBS (pH 7.4), and inoculated on LB-agar plates, followed by CFU counting. To estimate the functional half-life of AMPR-22, 40 mg/kg of each tested peptide were injected into mice. Whole blood sampling was performed by cardiac puncture, and the plasma was isolated by centrifugation (2000× g, 15 min). The isolated plasma was incubated with bacteria (1 × 10^3 CFU) for an hour, and then the CFU counting method was performed.

[2] = tested on: Pseudomonas aeruginosa ATCC 27853; format: cell-based; conditions: ATCC 27853, 1 h
Protocol: as §1, §2

[3] = tested on: Staphylococcus aureus ATCC 29213; format: cell-based; conditions: ATCC 29213, 1 h, pH 7.4
Protocol: as §1, §2

[4] = tested on: Methicillin-resistant S. aureus (MRSA) ATCC 33591; format: cell-based, Staphylococcus aureus; conditions: ATCC 33591, 1 h
Protocol: as §1, §2

CC[C@H](C)[C@H](NC(=O)CNC(=O)[C@H](CCSC)NC(=O)CNC(=O)[C@@H](NC(=O)[C@H](C)NC(=O)[C@H](CCSC)NC(=O)[C@H](Cc1ccccc1)NC(=O)[C@@H](NC(=O)CNC(=O)[C@H](Cc1ccccc1)NC(=O)[C@@H](NC(=O)CNC(=O)CNC(=O)[C@H](CO)NC(=O)[C@H](CCC(N)=O)NC(=O)[C@H](CCSC)NC(=O)[C@H](CCSC)NC(=O)[C@@H](NC(=O)[C@@H](N)CCCCN)[C@@H](C)O)[C@@H](C)O)[C@@H](C)O)[C@@H](C)CC)C(=O)N[C@@H](CCCNC(=N)N)C(=O)O [AMPR-11] (H-KTMMQSGGTFGTFMAIGMGIR-OH)
Hemolytic activity against human erythrocytes (human erythrocytes): low hemolytic activity

CC[C@H](C)[C@H](NC(=O)CNC(=O)[C@H](CCSC)NC(=O)CNC(=O)[C@@H](NC(=O)[C@H](C)NC(=O)[C@H](CCSC)NC(=O)[C@H](Cc1ccccc1)NC(=O)[C@@H](NC(=O)[C@H](Cc1ccccc1)NC(=O)[C@H](CCCCN)NC(=O)CNC(=O)CNC(=O)[C@H](CCCCN)NC(=O)[C@H](CCCCN)NC(=O)[C@H](CCSC)NC(=O)[C@H](CCSC)NC(=O)[C@H](CCCCN)NC(=O)[C@@H](N)CCCCN)[C@@H](C)O)[C@@H](C)CC)C(=O)N[C@@H](CCCNC(=N)N)C(=O)O [d68G] (H-KKMMKKGGKFTFMAIGMGIR-OH)
MBC Value, CRPA [1]: 8 µg/mL (≈ 3.54 µM) | MBC Value, P. aeruginosa [2]: 4 µg/mL (≈ 1.77 µM) | MBC Value, S. aureus [3]: 4 µg/mL (≈ 1.77 µM) | MBC Value, MRSA [4]: 4 µg/mL (≈ 1.77 µM)

CC[C@H](C)[C@H](NC(=O)CNC(=O)[C@H](CCSC)NC(=O)CNC(=O)[C@@H](NC(=O)[C@H](C)NC(=O)[C@H](CCSC)NC(=O)[C@H](Cc1ccccc1)NC(=O)[C@@H](NC(=O)CNC(=O)[C@H](Cc1ccccc1)NC(=O)[C@H](CCCCN)NC(=O)CNC(=O)CNC(=O)[C@H](CCCCN)NC(=O)[C@H](CCCCN)NC(=O)[C@H](CCSC)NC(=O)[C@H](CCSC)NC(=O)[C@H](CCCCN)NC(=O)[C@@H](N)CCCCN)[C@@H](C)O)[C@@H](C)CC)C(=O)O [d78R] (H-KKMMKKGGKFGTFMAIGMGI-OH)
MBC Value, CRPA [1]: 16 µg/mL (≈ 7.4 µM) | MBC Value, P. aeruginosa [2]: 4 µg/mL (≈ 1.85 µM) | MBC Value, S. aureus [3]: 16 µg/mL (≈ 7.4 µM) | MBC Value, MRSA [4]: 4 µg/mL (≈ 1.85 µM)

CC[C@H](C)[C@H](NC(=O)CNC(=O)[C@H](CCSC)NC(=O)CNC(=O)[C@@H](NC(=O)[C@H](C)NC(=O)[C@H](CCSC)NC(=O)[C@H](Cc1ccccc1)NC(=O)[C@@H](NC(=O)CNC(=O)[C@H](Cc1ccccc1)NC(=O)[C@H](CCCCN)NC(=O)CNC(=O)CNC(=O)[C@H](CCCCN)NC(=O)[C@H](CCCCN)NC(=O)[C@H](CCSC)NC(=O)[C@H](CCCCN)NC(=O)[C@@H](N)CCCCN)[C@@H](C)O)[C@@H](C)CC)C(=O)N[C@@H](CCCNC(=N)N)C(=O)O [d60M] (H-KKMKKGGKFGTFMAIGMGIR-OH)
MBC Value, CRPA [1]: 4 µg/mL (≈ 1.83 µM) | MBC Value, P. aeruginosa [2]: 2 µg/mL (≈ 0.915 µM) | MBC Value, S. aureus [3]: 4 µg/mL (≈ 1.83 µM) | MBC Value, MRSA [4]: 1 µg/mL (≈ 0.457 µM)

CC[C@H](C)[C@H](NC(=O)CNC(=O)[C@H](CCSC)NC(=O)CNC(=O)[C@@H](NC(=O)[C@H](C)NC(=O)[C@H](CCSC)NC(=O)[C@H](Cc1ccccc1)NC(=O)[C@@H](NC(=O)CNC(=O)[C@H](Cc1ccccc1)NC(=O)CNC(=O)CNC(=O)[C@H](CCCCN)NC(=O)[C@H](CCCCN)NC(=O)[C@H](CCSC)NC(=O)[C@H](CCSC)NC(=O)[C@H](CCCCN)NC(=O)[C@@H](N)CCCCN)[C@@H](C)O)[C@@H](C)CC)C(=O)N[C@@H](CCCNC(=N)N)C(=O)O [d66K] (H-KKMMKKGGFGTFMAIGMGIR-OH)
MBC Value, CRPA [1]: 4 µg/mL (≈ 1.83 µM) | MBC Value, P. aeruginosa [2]: 4 µg/mL (≈ 1.83 µM) | MBC Value, S. aureus [3]: 8 µg/mL (≈ 3.65 µM) | MBC Value, MRSA [4]: 4 µg/mL (≈ 1.83 µM)

CC[C@H](C)[C@H](NC(=O)CNC(=O)[C@H](CCSC)NC(=O)CNC(=O)[C@@H](NC(=O)[C@H](C)NC(=O)[C@H](CCSC)NC(=O)[C@H](Cc1ccccc1)NC(=O)[C@@H](NC(=O)CNC(=O)[C@H](CCCCN)NC(=O)CNC(=O)CNC(=O)[C@H](CCCCN)NC(=O)[C@H](CCCCN)NC(=O)[C@H](CCSC)NC(=O)[C@H](CCSC)NC(=O)[C@H](CCCCN)NC(=O)[C@@H](N)CCCCN)[C@@H](C)O)[C@@H](C)CC)C(=O)N[C@@H](CCCNC(=N)N)C(=O)O [d67F] (H-KKMMKKGGKGTFMAIGMGIR-OH)
MBC Value, CRPA [1]: 8 µg/mL (≈ 3.69 µM) | MBC Value, P. aeruginosa [2]: 4 µg/mL (≈ 1.84 µM) | MBC Value, S. aureus [3]: 8 µg/mL (≈ 3.69 µM) | MBC Value, MRSA [4]: 4 µg/mL (≈ 1.84 µM)

CC[C@H](C)[C@H](NC(=O)CNC(=O)[C@H](CCSC)NC(=O)CNC(=O)[C@@H](NC(=O)[C@H](C)NC(=O)[C@H](Cc1ccccc1)NC(=O)[C@@H](NC(=O)CNC(=O)[C@H](Cc1ccccc1)NC(=O)[C@H](CCCCN)NC(=O)CNC(=O)CNC(=O)[C@H](CCCCN)NC(=O)[C@H](CCCCN)NC(=O)[C@H](CCSC)NC(=O)[C@H](CCSC)NC(=O)[C@H](CCCCN)NC(=O)[C@@H](N)CCCCN)[C@@H](C)O)[C@@H](C)CC)C(=O)N[C@@H](CCCNC(=N)N)C(=O)O [d71M] (H-KKMMKKGGKFGTFAIGMGIR-OH)
MBC Value, CRPA [1]: 8 µg/mL | MBC Value, P. aeruginosa [2]: 2 µg/mL | MBC Value, S. aureus [3]: 4 µg/mL | MBC Value, MRSA [4]: 4 µg/mL

CC[C@H](C)[C@H](NC(=O)[C@H](C)NC(=O)[C@H](CCSC)NC(=O)[C@H](Cc1ccccc1)NC(=O)[C@@H](NC(=O)CNC(=O)[C@H](Cc1ccccc1)NC(=O)[C@H](CCCCN)NC(=O)CNC(=O)CNC(=O)[C@H](CCCCN)NC(=O)[C@H](CCCCN)NC(=O)[C@H](CCSC)NC(=O)[C@H](CCSC)NC(=O)[C@H](CCCCN)NC(=O)[C@@H](N)CCCCN)[C@@H](C)O)C(=O)NCC(=O)N[C@@H](CCSC)C(=O)NCC(=O)N[C@@H](CCCNC(=N)N)C(=O)O [d77I] (H-KKMMKKGGKFGTFMAIGMGR-OH)
MBC Value, CRPA [1]: 8 µg/mL (≈ 3.63 µM) | MBC Value, P. aeruginosa [2]: 4 µg/mL (≈ 1.81 µM) | MBC Value, S. aureus [3]: 8 µg/mL (≈ 3.63 µM) | MBC Value, MRSA [4]: 4 µg/mL (≈ 1.81 µM)

CC[C@H](C)[C@H](NC(=O)CNC(=O)[C@H](CCSC)NC(=O)[C@@H](NC(=O)[C@H](C)NC(=O)[C@H](CCSC)NC(=O)[C@H](Cc1ccccc1)NC(=O)[C@@H](NC(=O)CNC(=O)[C@H](Cc1ccccc1)NC(=O)[C@H](CCCCN)NC(=O)CNC(=O)CNC(=O)[C@H](CCCCN)NC(=O)[C@H](CCCCN)NC(=O)[C@H](CCSC)NC(=O)[C@H](CCSC)NC(=O)[C@H](CCCCN)NC(=O)[C@@H](N)CCCCN)[C@@H](C)O)[C@@H](C)CC)C(=O)N[C@@H](CCCNC(=N)N)C(=O)O [d74G] (H-KKMMKKGGKFGTFMAIMGIR-OH)
MBC Value, CRPA [1]: 8 µg/mL (≈ 3.54 µM) | MBC Value, P. aeruginosa [2]: 4 µg/mL (≈ 1.77 µM) | MBC Value, S. aureus [3]: 4 µg/mL (≈ 1.77 µM) | MBC Value, MRSA [4]: 4 µg/mL (≈ 1.77 µM)

Source: PMC8348110, “A Novel Peptide Derived from the Transmembrane Domain of Romo1 Is a Promising Candidate for Sepsis Treatment and Multidrug-Resistant Bacteria” (International Journal of Molecular Sciences, 2021)
